Results on one molecule are retold here after PubChem BioAssay (NCI).

Test systems include NCI-H522 lung; IGROV1 ovarian; HOP-92 NSCLC; KM12 colon; NCI-H23 lung; EKVX NSCLC; SK-OV-3 ovarian; OVCAR-8 ovarian; HT29 colon; OVCAR-4 ovarian.
What all share (test): inhibition of tumour cell growth, NCI panel, 48 h

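How tested: cells in 96-well plates exposed to compound for 48 hours at five concentrations. GI50 is the concentration that inhibits growth by half. At the TGI there is no net growth.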

With `O=C(Nc1ccc(-n2cc(-c3ccncc3)c(-c3ccc(Cl)c(O)c3)n2)cc1)c1ccc(Cl)c(C(F)(F)F)c1`, the GI50 is 1.14 µM in the test with NCI-H522 lung; 3.11 µM in the test on IGROV1 ovarian; 1.99 µM in the test on HOP-92 NSCLC; 0.451 µM in the test with KM12 colon; 1.72 µM in the test with NCI-H23 lung; 4.65 µM with EKVX NSCLC. The GI50 is 1.81 µM in the test on SK-OV-3 ovarian, 2.82 µM in the test on OVCAR-8 ovarian, 0.838 µM with HT29 colon and 3.66 µM in the test with OVCAR-4 ovarian. For the same molecule, the TGI in the test on NCI-H522 lung is 4.04 µM; in the test on IGROV1 ovarian, above 28.4 µM; in the test with HOP-92 NSCLC, 5.87 µM; with KM12 colon it was 2.88 µM; in the test on NCI-H23 lung, 5.08 µM; in the test on EKVX NSCLC, above 25 µM. For the same molecule, the TGI in the test on SK-OV-3 ovarian is 8.81 µM; in the test with OVCAR-8 ovarian, above 46 µM; in the test with HT29 colon, 3.05 µM; with OVCAR-4 ovarian it was above 90.4 µM.
